Measurements as given in patent US5654427A, “Indolocarbazole derivatives to treat a pathological condition of the prostate” (Kyowa Hakko Kogyo Co., Ltd., priority 1995, dated 1997).
Read-outs that look alike come from different tables or passages of the source.

Tests used:
Tsu-Pr1 = experiment: growth inhibition of Tsu-Pr1 prostate cancer cells (calcein fluorescence); type: cell-based; details: Homo sapiens, TSU-Pr1, 72 h, read-out: Tsu-Pr1 IC50
Experimental: (§1) Throughout the experiment the Tsu-Pr1 and Du-Pro1 cells were maintained in RPMI 1640 medium (GIBCO) containing 10% fetal bovine serum (Hyclone), 2 mM glutamine, 100 U/ml penicillin, and 100 μg/ml streptomycin. The PC-3 cells were maintained in Ham's F12K medium (Irvine Scientific) containing 10% fetal bovine serum (Hyclone), 2 mM glutamine, 100 U/ml penicillin, and 100 μg/ml streptomycin. All cell lines were maintained at 37° C. in a humidified atmosphere containing 5% CO2. The DU-145 cells were maintained in minimal essential medium (Gibco), containing 10% fetal bovine serum (Hyclone), 2 mM glutamine, and no antibiotics.
(§2) Tests for growth inhibition by the candidate compounds were conducted by the following procedure. In each well of a 96-well plate (Falcon) were placed 2,500 cells in 0.1 ml of medium. The cultures were incubated overnight after which a 0.1 ml aliquot of culture medium was added to each well. […] Other control wells received medium without any K-252a derivative compounds. Incubation was continued for three days. On day three the number of cells in each well was measured using a calcein fluorescence assay (Bozyczko-Coyne et al. J. Neurosci. Meth. 50, 205-216 (1993)).
(§3) Calcein AM (Molecular Probes, Eugene, Oreg.), an analog of the viable dye fluorescein diacetate, is taken up by cells and cleaved intracellularly to fluorescent salts that are retained by intact membranes of viable cells. This method thus provides a reliable and quantitative measurement of cell survival. Calcein AM was diluted 2× in Dulbeccos phosphate buffered saline (D-PBS) to 2× the final assay concentration (6 μM) and 100 μl was added to culture wells containing 100 μl of medium. The plates were then incubated for 1 hour at 37° C. Cells were then washed 4 times with D-PBS to remove excess calcein not taken up by cells. The plate was read using a Millipore plate reading fluorimeter (Cytofluor 2350) at emission=485 nm and excitation=538 nm. After subtraction of blank values (wells containing medium but no cells), relative fluorescent values reflect a quantitative measurement of cell survival.
(§4) The number of cells in the wells containing functional derivatives was compared to the number of cells in the control wells. The concentration which inhibited cell growth by 50% was calculated and is referred to as the "IC50 ".

trkA = molecular target: T1, trkA (Rattus norvegicus, UniProt P35739); experiment: inhibition of NGF-stimulated trk autophosphorylation (tyrosine phosphorylation) in PC12 cells, anti-phosphotyrosine Western blot; on trk 100 nM (inhibition of phosphorylation): key: +: Inhibited phosphorylation; -: Did not inhibit phosphorylation; on trk 500 nM (inhibition of phosphorylation): key: +: Inhibited phosphorylation; -: Did not inhibit phosphorylation; type: cell-based; details: for trk 100 nM (inhibition of phosphorylation) / phosphorylation response (FIG. 1, spot): 100 nM compound; for trk 100 nM (inhibition of phosphorylation) / trk 500 nM (inhibition of phosphorylation): NGF 50 ng/ml; for trk 500 nM (inhibition of phosphorylation): 500 nM compound; for phosphorylation response (FIG. 1, spot): NGF, Western blot FIG. 1
T1 construct: are rat pheochromocytoma cells that bear trkA; host or cells: PC12 rat pheochromocytoma cells
Experimental: Candidate compounds for the inhibition of prostate cell proliferation were selected according to their ability to inhibit the tyrosine kinase activity associated with the trks.
PC12 cells (ATCC #CRL1721) are rat pheochromocytoma cells that bear trkA and differentiate into sympathetic neurons when treated with NGF. […] Cells were incubated at 37° C. in a humidified atmosphere of 10% CO2 and 90% air. […] The cells in each culture were disrupted and cell lysates were prepared by standard techniques known to those skilled in the art. Each lysate was incubated with anti-trk antibody whereby immune complexes were formed. […] The immune complexes were collected on Protein A-Sepharose beads, separated by SDS-polyacrylamide gel electrophoresis (SDS-PAGE), and transferred to polyvinylidene difluoride (PVDF) membranes (Millipore Corp., Bedford, Mass.), using techniques well known to those skilled in the art. The membranes were incubated with anti-phosphotyrosine antibody, which binds to the tyrosine phosphorylated trks, but not to the un-phosphorylated form of trks. Proteins bound to anti-phosphotyrosine antibody were visualized with enhanced chemiluminescence (ECL, Amersham), and are shown as dark "spots" in FIG. 1.
Measurement of the autophosphorylation of trk provides a good index of trk tyrosine kinase activity, and thereby of trk stimulation.
Inhibition was indicated by the absence of a spot migrating with the trk marker shown at the left side of the figure. Partial inhibition was indicated by a spot of reduced size.

[1] = test system: androgen independent human prostate cancer cell lines Tsu-Pr1, DuPro-1, PC-3 and DU-145; experiment: growth inhibition of prostate cancer-derived cell lines, overall (calcein fluorescence); type: cell-based; details: Table 3
Experimental: as §1, §2
Calcein AM (Molecular Probes, Eugene, Oreg.), an analog of the viable dye fluorescein diacetate, is taken up by cells and cleaved intracellularly to fluorescent salts that are retained by intact membranes of viable cells. This method thus provides a reliable and quantitative measurement of cell survival. Calcein AM was diluted 2× in Dulbeccos phosphate buffered saline (D-PBS) to 2× the final assay concentration (6 μM) and 100 μl was added to culture wells containing 100 μl of medium. The plates were then incubated for 1 hour at 37° C. Cells were then washed 4 times with D-PBS to remove excess calcein not taken up by cells. The plate was read using a Millipore plate reading fluorimeter (Cytofluor 2350) at emission=485 nm and excitation=538 nm. After subtraction of blank values (wells containing medium but no cells), relative fluorescent values reflect a quantitative measurement of cell survival. […]

[2] = test system: Dunning R-3327 AT-2.1 prostate tumor; experiment: inhibition of growth of Dunning R-3327 AT-2.1 prostate tumor in adult male Copenhagen rats; type: in vivo, rat; details: 3 mg/kg/day s.c.
Excerpt: The AT-2 tumor is a highly anaplastic cell line derived from the original slow-growing androgen-dependent Dunning R-3327 H rat prostate tumor (Issacs et al., Prostate 9:261-281, 1986). The AT-2 tumor model has been used to characterize other potential anti-prostatic cancer agents including linomide (Ichikawa et al., Cancer Research 52:3022-3028, 1992) and suramin (Morton et al., Prostate 17:327-336, 1990) which is undergoing evaluation in clinical trials for androgen-independentprostate cancer (Eisenberger et al., J. Natl. Can. Inst. 85: 611-621, 1993).
Experimental Protocol: Twenty-four inbred male Copenhagen rats were inoculated subcutaneously in the flank with 1×10^6 viable AT-2.1 tumor cells. All animals were allowed to develop tumors of approximately 2.7 cm^3 in size (approximately 14 days) before being randomized into three groups of 8 animals each. Group 1 received daily subcutaneous injections of vehicle alone (1 ml/kg body weight). […] All animals had their tumor sizes evaluated for a period of 16 days. Tumor volume was calculated using the formula (1×w^2)×0.5.

DU-145 = experiment: growth inhibition of DU-145 prostate cancer cells (calcein fluorescence); type: cell-based; details: Homo sapiens, DU-145, 72 h, read-out: DU-145 C50
Experimental: as §1, §2, §3, §4

Du-Pro1 = experiment: growth inhibition of Du-Pro1 prostate cancer cells (calcein fluorescence); type: cell-based; details: Homo sapiens, 72 h, read-out: Du-Pro1 IC50
Experimental: as §1, §2, §3, §4

T1 sequence (P35739 33-799): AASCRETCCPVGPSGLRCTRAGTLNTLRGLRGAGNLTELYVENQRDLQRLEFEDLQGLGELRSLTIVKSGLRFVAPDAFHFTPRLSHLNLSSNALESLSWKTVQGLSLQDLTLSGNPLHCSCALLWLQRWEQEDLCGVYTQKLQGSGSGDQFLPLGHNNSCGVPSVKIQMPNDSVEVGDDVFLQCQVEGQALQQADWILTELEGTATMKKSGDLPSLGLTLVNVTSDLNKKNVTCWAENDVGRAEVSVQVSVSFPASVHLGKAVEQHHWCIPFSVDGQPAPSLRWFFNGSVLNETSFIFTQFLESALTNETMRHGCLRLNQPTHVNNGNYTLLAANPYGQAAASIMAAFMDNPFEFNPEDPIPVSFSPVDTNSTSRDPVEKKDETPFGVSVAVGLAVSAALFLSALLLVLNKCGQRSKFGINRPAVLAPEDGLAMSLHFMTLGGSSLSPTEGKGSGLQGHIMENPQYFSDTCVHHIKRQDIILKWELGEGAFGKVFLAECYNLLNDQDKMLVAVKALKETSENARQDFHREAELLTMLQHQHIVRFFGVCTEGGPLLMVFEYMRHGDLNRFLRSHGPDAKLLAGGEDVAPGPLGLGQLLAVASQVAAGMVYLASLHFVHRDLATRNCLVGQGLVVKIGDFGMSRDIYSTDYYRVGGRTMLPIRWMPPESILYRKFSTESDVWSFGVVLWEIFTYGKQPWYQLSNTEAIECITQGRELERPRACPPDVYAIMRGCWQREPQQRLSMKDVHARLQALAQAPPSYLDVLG

Row | Compound | trk 100 nM (inhibition of phosphorylation) (trkA) | trk 500 nM (inhibition of phosphorylation) (trkA) | further results
1 | C[S+]([O-])CC1(O)CC2OC1(C)n1c3ccccc3c3c4c(c5c6ccccc6n2c5c31)C(=O)NC4 (centres unmarked) [Compound I-8] | - | + | IC50 (Tsu-Pr1; 3 days incubation): 540 nM
2 | CN1CC2(CC3OC2(C)n2c4ccccc4c4c5c(c6c7ccccc7n3c6c42)C(=O)NC5)OC1=O (centres unmarked) [Compound I-15] | + |  | IC50 (Tsu-Pr1; 3 days incubation): 510 nM
3 | COC(=O)C1(O)CC2OC1(C)n1c3ccccc3c3c4c(c5c6ccccc6n2c5c31)C(=O)NC4=O (centres unmarked) [Compound I-22] | + |  | IC50 (Tsu-Pr1; 3 days incubation): 690 nM
4 | CC12OC(CC1(O)CO)n1c3ccc(Br)cc3c3c4c(c5c6cc(Br)ccc6n2c5c31)CNC4=O (centres unmarked) [Compound I-42] | + | + | IC50 (Tsu-Pr1; 3 days incubation): 90 nM
5 | CN(C)CC1(O)CC2OC1(C)n1c3ccccc3c3c4c(c5c6ccccc6n2c5c31)C(=O)NC4 (centres unmarked) [Compound I-16] | + |  | IC50 (Tsu-Pr1; 3 days incubation): 210 nM
6 | CN(C)C(=O)C1(O)CC2OC1(C)n1c3ccccc3c3c4c(c5c6ccccc6n2c5c31)C(=O)NC4 (centres unmarked) [Compound I-25] | + |  | 
7 | CC(=O)OC1(C(=O)NCC(C)C)CC2OC1(C)n1c3ccccc3c3c4c(c5c6ccccc6n2c5c31)C(=O)NC4 (centres unmarked) [Compound I-55] | + |  | 
8 | CC(=O)OCC1(O)CC2OC1(C)n1c3ccccc3c3c4c(c5c6ccccc6n2c5c31)C(=O)NC4 (centres unmarked) [Compound I-6] | + |  | 
9 | CC12OC(CC1=O)n1c3ccccc3c3c4c(c5c6ccccc6n2c5c31)CNC4=O (centres unmarked) [Compound I-52] | + |  | 
10 | CC12OC(CC1(O)C[S+]([O-])c1ccccn1)n1c3ccccc3c3c4c(c5c6ccccc6n2c5c31)CNC4=O (centres unmarked) [Compound I-40] | + |  | 
11 | COC(=O)C1(O)CC2OC1(C)n1c3ccccc3c3c4c(c5c6cc(C=NNC(=N)N)ccc6n2c5c31)C(=O)NC4 (centres unmarked) [Compound I-73] | + | + | 
12 | COC(=O)C1(O)CC2OC1(C)n1c3ccccc3c3c4c(c5c6cc(C=NN(C)C)ccc6n2c5c31)C(=O)NC4 (centres unmarked) [Compound I-75] |  | + | 
13 | COC(=O)C1(O)CC2OC1(C)n1c3ccccc3c3c4c(c5c6cc(C=NNC7=NCCN7)ccc6n2c5c31)C(=O)NC4 (centres unmarked) [Compound I-61] | - | + | 
14 | CC12OC(CC1(O)C(=O)Nc1ccccc1)n1c3ccccc3c3c4c(c5c6ccccc6n2c5c31)CNC4=O (centres unmarked) [Compound I-33] | - | + | 
15 | COC(=O)C1(O)CC2OC1(C)n1c3ccccc3c3c4c(c5c6cc(CSc7ccccn7)ccc6n2c5c31)C(=O)NC4 (centres unmarked) [Compound I-60] | - | + | 
16 | CC12OC(CC1(O)CNC(=O)[C@@H](N)CO)n1c3ccccc3c3c4c(c5c6ccccc6n2c5c31)CNC4=O (some centres unmarked) [Compound I-18] | + |  | 
17 | COC(=O)C1(O)CC2OC1(C)n1c3ccccc3c3c4c(c5c6cc(O)ccc6n2c5c31)C(=O)NC4 (centres unmarked) [Compound I-5] | + |  | potency in inhibiting prostate cell line growth, in words [1]: most potent compounds in inhibiting growth in all four cell lines; inhibiting growth of AT-2.1 tumors ([2]; approximately): 50-60%; Tumor volume Day 0 ([2]; vehicle 2.73 ± 0.50): 2.70 ± 1.06 cm^3; Tumor volume Day 3 ([2]; vehicle 6.66 ± 1.48): 5.64 ± 1.32 cm^3; Tumor volume Day 8 ([2]; vehicle 21.0 ± 3.0): 10.7 ± 2.9 cm^3; Tumor volume Day 13 ([2]; vehicle 37.3 ± 4.0): 19.8 ± 5.6 cm^3; Tumor volume Day 16 ([2]; vehicle 58.7 ± 5.0): 24.6 ± 6.2 cm^3; IC50 (DU-145): 80 nM; IC50 (Du-Pro1): 60 nM; IC50 (Tsu-Pr1): 70 nM
18 | CC12OC(CC13CNC(=O)O3)n1c3ccccc3c3c4c(c5c6ccccc6n2c5c31)CNC4=O (centres unmarked) [Compound I-7] | + |  | phosphorylation response (FIG. 1, spot) (trkA): absent (no spot seen)
19 | COC(=O)C1(O)CC2OC1(C)n1c3ccccc3c3c4c(c5c6cc(C)ccc6n2c5c31)C(=O)NC4 (centres unmarked) [Compound I-38] | + |  | 
20 | CC12OC(CC1(O)C=NNC1=NCCN1)n1c3ccccc3c3c4c(c5c6ccccc6n2c5c31)CNC4=O (centres unmarked) [Compound I-30] | - | + | 
21 | CC12OC(CC1(O)CSC1O[C@H](CO)[C@@H](O)[C@H](O)[C@H]1O)n1c3ccccc3c3c4c(c5c6ccccc6n2c5c31)CNC4=O (some centres unmarked) [Compound I-20] | - | + | IC50 (Tsu-Pr1; 3 days incubation): 5700 nM; phosphorylation response (FIG. 1, spot) (trkA): somewhat diminished (a smaller spot was seen)
22 | CNC(=O)C1(O)CC2OC1(C)n1c3ccccc3c3c4c(c5c6ccccc6n2c5c31)C(=O)NC4 (centres unmarked) [Compound I-54] | + |  | 
23 | CCOCc1ccc2c(c1)c1c3c(c4c5ccccc5n5c4c1n2C1CC(O)(C(=O)OC)C5(C)O1)CNC3=O (centres unmarked) [Compound I-41] | + | + | 
24 | CCCNC(=O)C1(O)CC2OC1(C)n1c3ccccc3c3c4c(c5c6ccccc6n2c5c31)C(=O)NC4 (centres unmarked) [Compound I-10] | + |  | 
25 | CC12OC(CC1(O)CN=[N+]=[N-])n1c3ccccc3c3c4c(c5c6ccccc6n2c5c31)CNC4=O (centres unmarked) [Compound I-21] | - | + | 
